Reference: patent US20050130909A1 (priority 2002, published 2005)
pKd: −log10 of the molar value. Where “and” joins values, the source holds several entries; their conditions need not be identical. Equal values may be shown once. Read-outs that look alike come from different tables or passages of the source.

Tests used:
human albumin = human albumin (Homo sapiens, UniProt P02768); test: Protein binding by isothermal titration microcalorimetry (ITC); conditions: for Calculated percent Binding to Human albumin: albumin 6×10^−4 M assumed
[1] = ESI-MS analysis of multimers in solution
Method: Experiments were performed using an Applied Biosystem API III+ mass spectrometer equipped with a TurboIonSpray source, a Triple Quadrupole analyzer, operating in positive ion mode.
The mass spectra were obtained in electrospray positive mode on a Finnigan LCQ^Deca ion trap instrument previously tuned and calibrated in electrospray mode using Ultramark 1621, caffeine and MRFA (L-metionyl-arginyl-phenilalanyl-arginine).

S. aureus = test: Dalbavancin MIC of baseline pathogens; type: cell-based; conditions: baseline isolates, MITT
Description: (§1) The most common pathogen was S. aureus.

Group B streptococcus = test: Dalbavancin MIC of baseline pathogens; type: cell-based; conditions: baseline isolates, MITT
Description: as §1

Streptococcus pyogenes = test: Dalbavancin MIC of baseline pathogens; type: cell-based; conditions: baseline isolates, MITT
Description: as §1

[2] = test system: Miscellaneous Streptococcus and nontypeable strains; test: Dalbavancin MIC of baseline pathogens; type: cell-based; conditions: baseline isolates, MITT
Description: as §1

Lys-D-Ala-D-Lactate = test: ITC, preliminary experiments; type: binding; conditions: absence of serum proteins
bovine albumin = bovine albumin (Bos taurus, UniProt P02769); test: Protein binding by ITC; conditions: 25° C.; pH 7.4
[3] = Stability of dalbavancin in plasma; type: in vitro ADME, human; conditions: 1.5 and 90 μg/ml
[4] = Phase II SSTI trial: adverse events (ITT population); type: in vivo, human
Method: This randomized, controlled study evaluated the safety and efficacy of two dose regimens of dalbavancin.
Each patient who received at least one dose of study drug (ITT population) was evaluated for drug safety through monitoring of adverse events (AE), including abnormal clinical laboratory test results and vital signs. AE were rated by the investigator as to their severity (mild, moderate, severe, life-threatening), and by the relationship to the study drug (not related, unlikely related, possibly related, or probably related).

HSA = HSA (Homo sapiens, UniProt P02768); test: MALDI-TOF mass spectrometry of protein-dalbavancin complexes; type: binding; conditions: ratios (1:2, 1:10)
Method: The samples were prepared for analysis using the dried droplet technique. Spectra were obtained on a BRUKER FLEX III, tof mass spectrometer previously tuned and calibrated using standard bovine serum albumin, acquiring and averaging spectra generated by 200 laser shots. Matrix: 9 parts of DHB-9 (2,5-dihydroxy-benzoic acid) saturated in acetonitrile/H2O (50:50), 1 part of sinapinic acid saturated in acetonitrile/H2O (50:50). 0.5 ul of sample solution and 0.5 ul of matrix solution were mixed and placed on the laser target.

[5] = Safety assessments in healthy subjects; type: in vivo, human
Method: Adverse events were recorded and assessed for severity and relationship to study drug. Laboratory data (chemistry panel, CBC with differential, urinalysis) were collected and assessed for changes from baseline and out-of-range values. ECG, physical examination, and vital signs were obtained, and changes from baseline were assessed.

staphylococci = test: In vitro antibacterial activity; type: cell-based; conditions: including some teicoplanin-resistant strains
[6] = test system: N,N′-diacetyl-Lys-D-Ala-D-Ala; test: ITC of binding to tri-peptide cell-wall analog, with and without HSA
Method: Peptide concentrations were determined by weight.
Trans. R. Soc. Lond. Ser. A-Math. Phys. Eng. […] Wiley, (1998) p 103-111; and Cooper, A., Curr. Opin. Chem. Biol. (1999) 3, 557-563.

[7] = single-dose dalbavancin (N = 20)
[8] = AE possibly related, upper limit of normal 40 IU/L
[9] = single 1000 mg IV dose, healthy subjects
[10] = six healthy volunteers, single 1000 mg IV

human albumin, sequence (P02768 25-609): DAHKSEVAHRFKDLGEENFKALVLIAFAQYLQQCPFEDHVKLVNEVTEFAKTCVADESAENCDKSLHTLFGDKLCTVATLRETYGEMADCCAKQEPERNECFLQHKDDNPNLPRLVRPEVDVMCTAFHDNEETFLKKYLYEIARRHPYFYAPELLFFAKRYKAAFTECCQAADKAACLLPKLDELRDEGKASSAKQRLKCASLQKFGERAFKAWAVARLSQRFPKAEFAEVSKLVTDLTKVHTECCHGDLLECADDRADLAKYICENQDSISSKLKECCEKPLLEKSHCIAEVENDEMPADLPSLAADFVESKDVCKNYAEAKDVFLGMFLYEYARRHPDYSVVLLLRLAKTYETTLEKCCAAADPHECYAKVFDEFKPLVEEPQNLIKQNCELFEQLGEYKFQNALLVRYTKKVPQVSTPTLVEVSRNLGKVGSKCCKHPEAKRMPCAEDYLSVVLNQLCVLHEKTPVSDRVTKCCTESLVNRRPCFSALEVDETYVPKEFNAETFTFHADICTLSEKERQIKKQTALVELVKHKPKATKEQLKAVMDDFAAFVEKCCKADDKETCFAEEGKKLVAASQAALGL
HSA, sequence (P02768 25-609): as above
bovine albumin, sequence (P02769 25-607): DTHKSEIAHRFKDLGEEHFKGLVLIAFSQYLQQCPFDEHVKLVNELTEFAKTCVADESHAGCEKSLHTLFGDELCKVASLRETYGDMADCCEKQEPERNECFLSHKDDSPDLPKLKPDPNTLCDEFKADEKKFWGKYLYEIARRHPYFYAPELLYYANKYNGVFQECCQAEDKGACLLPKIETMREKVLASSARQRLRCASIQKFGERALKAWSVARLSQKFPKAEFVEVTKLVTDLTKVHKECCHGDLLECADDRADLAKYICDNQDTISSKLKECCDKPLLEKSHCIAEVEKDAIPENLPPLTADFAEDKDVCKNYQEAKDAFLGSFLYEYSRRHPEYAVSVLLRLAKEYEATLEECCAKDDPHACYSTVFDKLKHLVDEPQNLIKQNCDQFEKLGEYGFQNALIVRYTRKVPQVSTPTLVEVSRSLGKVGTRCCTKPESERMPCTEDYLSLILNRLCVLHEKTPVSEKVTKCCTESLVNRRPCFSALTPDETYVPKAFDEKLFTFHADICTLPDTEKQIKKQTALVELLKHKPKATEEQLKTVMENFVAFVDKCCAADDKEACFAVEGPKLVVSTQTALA

CN[C@H]1C(=O)N[C@@H]2Cc3ccc(cc3)Oc3cc4cc(c3O[C@@H]3O[C@H](C(=O)O)[C@@H](O)[C@H](O)[C@H]3NC(=O)CCCCCCCCC(C)C)Oc3ccc(cc3Cl)[C@@H](O)[C@@H]3NC(=O)[C@H](NC(=O)[C@@H]4NC(=O)[C@@H](NC2=O)c2cc(cc(O)c2Cl)Oc2cc1ccc2O)c1ccc(O)c(c1)-c1c(O[C@H]2O[C@H](CO)[C@@H](O)[C@H](O)[C@@H]2O)cc(O)cc1[C@@H](C(=O)NCCCN(C)C)NC3=O [Dalbavancin]
Apparent binding affinity Ka (human albumin; 37° C., pH 7.4): 1.33 (±0.15) ×10^5 M^−1
Binding stoichiometry N (protein to dalbavancin) (human albumin; ITC fit, in all cases (all proteins tested), FIG. 2): < 1
Binding to human serum albumin (human albumin; across 1-500 μM dalbavancin): exceeds 98%
Calculated percent Binding to Human albumin (human albumin; antibiotic 1 μM): 98.8%
Calculated percent Binding to Human albumin (human albumin; antibiotic 10 μM): 98.8%
Calculated percent Binding to Human albumin (human albumin; antibiotic 100 μM): 98.7%
Calculated percent Binding to Human albumin (human albumin; antibiotic 165 μM): 98.6%
Calculated percent Binding to Human albumin (human albumin; antibiotic 250 μM): 98.5%
Calculated percent Binding to Human albumin (human albumin; antibiotic 500 μM): 98.0%
Binding stoichiometry antibiotic:protein (human albumin; binding stoichiometry modeling of ITC data): two dalbavancin molecules are bound to one molecule of protein
Free fraction (human albumin; human): ~1%
Population ratio of multimer to monomer: influence of ionic strength ([1]; 100 μg/mL, ammonium formate 5, 50, 100 mM pH 5, FIGS. 6-8): decrease in dalbavancin multimer to monomer population ratio
Population ratio of multimer to monomer: influence of concentration ([1]; 20, 40, 60, and 80 μg/mL, FIG. 4): increases with increasing concentration
Multimers in solution ([1]; dalbavancin 0.1 mg/ml in 8:2 water:isopropanol, teicoplanin 50 and 100 μg/mL in water): indicates the presence of dalbavancin multimers
Population ratio of multimer to monomer: influence of pH ([1]; pH 2.5 to 5.5, FIG. 5): increases with increasing pH
Dalbavancin MIC (S. aureus; single-dose arm (N = 14)): 13 (0.12) mg/L
Dalbavancin MIC range (S. aureus; standard of care arm (N = 14)): 10 (0.016-0.25) mg/L
Dalbavancin MIC (S. aureus; two-dose arm (N = 13)): 11 (0.12) mg/L
Dalbavancin MIC (Group B streptococcus; standard of care arm): 2 (0.016) mg/L
Dalbavancin MIC (Group B streptococcus; two-dose arm): 2 (0.016) mg/L
Dalbavancin MIC (Streptococcus pyogenes; standard of care arm): 1 (0.016) mg/L
Dalbavancin MIC (Streptococcus pyogenes; two-dose arm): 1 (0.016) mg/L
Dalbavancin MIC ([2]; single-dose arm): 3 (0.016) mg/L
Dalbavancin MIC ([2]; standard of care arm): 4 (0.016) mg/L
Dalbavancin MIC ([2]; two-dose arm): 2 (0.016) mg/L
Binding to Lys-D-Ala-D-Lactate (Lys-D-Ala-D-Lactate): no evidence of binding
Apparent binding affinity Ka (bovine albumin): 1.38 (±0.14) ×10^5 M^−1
Stability in processed plasma samples ([3]; 24 hours at room temperature): stable after 24 hours at room temperature
Stability in human plasma, freeze-thaw ([3]; three cycles of freeze-thaw): stable after three cycles of freeze-thaw treatment
Hepatotoxicity or nephrotoxicity ([4]; Phase II trial): no evidence that dalbavancin induces any degree of clinically significant hepatotoxicity or nephrotoxicity
Serious adverse events related to study drug ([4]; Phase II trial, both dalbavancin regimens): no serious adverse events related to study drug treatment
Tolerability ([4]; Phase II trial, both doses): well tolerated
AE leading to discontinuation of study medication [4, 7]: 0
Patients with ≧1 AE [4, 7]: 95%
≧1 AE possibly/probably related to treatment [4, 7]: 55%
≧1 AE possibly/probably related to treatment ([4]; single-dose dalbavancin (N = 20), listed as dalbavancin): 55%
AE leading to discontinuation of study medication ([4]; two-dose dalbavancin (N = 21)): 0
Adverse event: Constipation ([4]; two-dose dalbavancin (N = 21)): 4.8%
Patients with ≧1 AE ([4]; two-dose dalbavancin (N = 21)): 76.2%
≧1 AE possibly/probably related to treatment ([4]; two-dose dalbavancin (N = 21)): 48%
≧1 AE possibly/probably related to treatment ([4]; two-dose dalbavancin (N = 21), listed as dalbavancin): 48%
Complex with HSA at very high dalbavancin to protein ratios (HSA): complexes containing 2 molecules of dalbavancin per protein molecule can be observed
Eosinophilia, individual subject value ([5]; AE possibly related, upper limit of normal 0.4×10^3/μL): 500 µL⁻¹
Elevated ALT, individual subject value [5, 8]: 46 IU/L and 54 IU/L
Elevated AST, individual subject value [5, 8]: 42 IU/L
Elevated LDH, individual subject value ([5]; AE possibly related, upper limit of normal 90 IU/L): 303 IU/L
Post-baseline hematology, chemistry, vital signs, and ECG ([5]; single 1000 mg IV): No trends were seen
Deaths or serious adverse events [5, 9]: No subject deaths or serious adverse events were reported
Tolerability [5, 9]: well-tolerated
AEs possibly related to study medication [5, 10]: Three volunteers reported AEs that were possibly related to study medication
Adverse events, incidence and intensity [5, 10]: All volunteers reported at least one AE, all of mild intensity
In vitro activity relative to teicoplanin and vancomycin (staphylococci): more active in vitro against staphylococci (including some teicoplanin-resistant strains) than teicoplanin and vancomycin
Kass ([6]; 10 ° C., [HSA] 0 μM): 920000 M⁻¹ and 685000 M⁻¹ and 624000 M⁻¹ and 670000 M⁻¹
pKd ([6]; 10 ° C., [HSA] 0 μM, read-out: Kdiss): 5.96 and 5.80 and 5.83
pKd ([6]; 10° C., absence of HSA, read-out: Average Kdiss): ~5.85
Weakening of binding affinity at HSA plateau relative to absence of HSA ([6]; 25° C.): 10-12 ×
Kass ([6]; 25 ° C., [HSA] 0 μM): 313000 M⁻¹ and 330000 M⁻¹ and 320000 M⁻¹ and 280000 M⁻¹ and 303000 M⁻¹ and 319000 M⁻¹ and 393000 M⁻¹
pKd ([6]; 25 ° C., [HSA] 0 μM, read-out: Kdiss): 5.45 and 5.48 and 5.60
pKd ([6]; 25° C., absence of HSA (free dalbavancin), read-out: Average Kdiss): ~5.51
Kass ([6]; 25 ° C., with HSA 34.2 μM): 35000 M⁻¹
pKd ([6]; 25 ° C., with HSA 34.2 μM, read-out: Kdiss): 4.54
pKd ([6]; 37° C., absence of HSA, read-out: Average Kdiss): ~5.08
Effect of HSA on solubility of dalbavancin ([6]; aqueous buffer pH 7.4 containing HSA): HSA increased the solubility of dalbavancin
pKd ([6]; read-out: Apparent Kdiss, plateau level at high concentrations of HSA (dalbavancin bound to HSA), 25° C., HSA above 35 μM up to 600 μM, FIG. 11): ~4.46
